Measured values: PMC5554220, “A Novel Aldosterone Antagonist Limits Renal Injury in 5/6 Nephrectomy” (Scientific Reports, 2017)

Key:
[1] = tested on: rats with 5/6 renal ablation (Nx); test: Protocol 1 (early treatment), 5/6 renal ablation (Nx); type: in vivo, male Munich-Wistar rats
Source text: (§1) One-hundred forty-five adult male Munich-Wistar rats, obtained from a local facility at the Faculty of Medicine, University of São Paulo, weighing between 220 and 250 g, were used in this study. All experimental procedures were approved by the local Research Ethics Committee (Comissão de Ética para Análise de Projetos de Pesquisa do Hospital das Clínicas da Faculdade de Medicina da Universidade de São Paulo, CAPPesq, process n° 0905/09), and carried out following strictly our institutional guidelines and current international standards for manipulation and care of laboratory animals. Body weights and general conditions were assessed daily. Five-sixths renal ablation (Nx) was performed as a single-step procedure under anesthesia with ketamine 50 mg/kg and xylazine 10 mg/kg im. After ventral laparotomy, the right kidney was excised and two or three branches of the left renal artery were ligated, so as to promote infarction of two-thirds of the left kidney. The operation was invariably well tolerated. Sham-operated rats underwent anesthesia and manipulation of the renal pedicles without removal of renal mass. After surgery, rats received enrofloxacin and, upon recovery, had free access to tap water and regular rodent chow containing 0.5 Na and 22% protein (Nuvital Labs, Curitiba, Brazil), and were kept at 23 ± 1 °C and 60 ± 5% relative air humidity, under an artificial 12–12 hour light/dark cycle. Rats were then treated following two different experimental protocols (described later).
In this first protocol, Nx rats were divided into groups: NX + V (N = 8), receiving vehicle; NX + Eple (N = 8), receiving oral (mixed with the chow) Eple, 150 mg/kg/day; and Nx + Ly (N = 8), receiving oral Ly, 20 mg/kg/day. A group of sham-operated rats (S, N = 7) was also studied. Treatments were started 24 h after surgery. Rats were followed during 60 days, with determination of TCP and UalbV on Days 30 and 60. TCP was assessed with an optoelectronic automated device (Visitech Systems, Apex, NC), after rats had been preconditioned so as to remain calm during the procedure. UalbV was measured with a conventional immunodiffusion technique. On Day 60, rats were anesthetized as described before, and blood was collected from the abdominal aorta for determination of serum creatinine, serum K^+, PRA and PAC. The remnant kidney was then perfusion-fixed with Duboscq-Brazil solution after a brief washout with saline to remove blood from renal vessels, and prepared for histomorphometric and immunohistochemical analyses using conventional sequential techniques.
(§2) Histomorphometric analysis was performed blindly by two independent observers. The extent of glomerular injury was estimated, in PAS-stained sections, by determining the percentage of glomeruli with sclerotic lesions. The fraction of the renal cortical area occupied by interstitial tissue (%INT) was estimated in 25 consecutive microscopic fields of Masson-stained sections by a point-counting technique, at a final magnification of 200X, under a 144-point grid.
PRA and PAC were determined using commercially available radioimmunoassay kits (Renin Active IRMA and Aldosterone Active RIA, Beckman Coulter, Carlsbad, CA).

[2] = tested on: rats with 5/6 renal ablation (Nx); test: Protocol 2 (late treatment), 5/6 renal ablation (Nx); type: in vivo, male Munich-Wistar rats
Source text: as §1
In Protocol 2, adult male Munich-Wistar rats were subjected to Nx as described earlier, and left untreated for two months. At this time, TCP and UalbV were assessed as described earlier. Rats with TCP ≤ 170 mmHg or UalbV ≤ 40 mg/day were excluded from the study. The remaining […] Nx rats were divided into four experimental groups: Nx + V (N = 14), untreated Nx rats; Nx + L (N = 15), receiving oral L, 50 mg/kg in drinking water; Nx + L + Eple (N = 14), receiving L and Eple (N = 14), 150 mg/kg/day; and Nx + L + Ly (N = 14), receiving L and Ly (20 mg/kg/day) as described before. A group of S rats (N = 16) was also included. All groups were followed for 90 days after treatments were started (150 days after nephrectomy), with monthly measurement of TCP and UalbV. At the end of this period, rats were anesthetized, blood was collected, and the renal tissue was perfusion-fixed and prepared for histomorphometric and immunohistochemical examination in the same manner as for Protocol 1.
as §2
Immunohistochemistry was performed on 4-μm-thick sections, mounted on glass slides precoated with 2% silane. Sections were deparaffinized and rehydrated by conventional techniques, then heated in citrate buffer for antigen retrieval and incubated overnight with the primary antibody at 4 °C (no antibody in negative control experiments). Primary antibodies used were: monoclonal mouse anti-rat ED-1 (Serotec, Oxford, UK); polyclonal rabbit anti-human AngII (Peninsula Laboratories, San Carlos, CA); and polyclonal rabbit anti-collagen I (Abcam, Cambridge, UK).
For ED-1 detection, sections were preincubated with 5% normal rabbit serum to prevent nonspecific binding, then incubated overnight at 4 °C with the primary antibody diluted in BSA at 1%. […]

Nx rats = test: Preliminary experiments to determine the doses of Eple and Ly; type: in vivo
Experimental: Preliminary experiments were performed to exclude the possibility that any differences between Eple and Ly, both in monotherapy and as add-ons to L, were simply due to the use of inadequately low doses of either compound. In the first set of experiments, Nx rats received Eple at the recommended dose of 85 mg/kg, and at 150 mg/kg, higher than in most studies reported so far. […] Other Nx rats received Ly at either 12 mg/kg (the recommended dose) or 20 mg/kg. […] Based on these preliminary results, we set the doses of Eple and Ly at 150 mg/kg and 20 mg/kg, respectively.

[3] = biological target: T1, human glucocorticoid receptor (hGR) (Homo sapiens, UniProt P04150); test: Radioligand binding, hGR expressed in HEK293 cells; details: hGR expressed in HEK293 cells; read-out: Mean Ki ± SEM hGR*
T1 construct: expressed in transfected cells; host or cells: HEK293 cells
T1 sequence (P04150 1-777): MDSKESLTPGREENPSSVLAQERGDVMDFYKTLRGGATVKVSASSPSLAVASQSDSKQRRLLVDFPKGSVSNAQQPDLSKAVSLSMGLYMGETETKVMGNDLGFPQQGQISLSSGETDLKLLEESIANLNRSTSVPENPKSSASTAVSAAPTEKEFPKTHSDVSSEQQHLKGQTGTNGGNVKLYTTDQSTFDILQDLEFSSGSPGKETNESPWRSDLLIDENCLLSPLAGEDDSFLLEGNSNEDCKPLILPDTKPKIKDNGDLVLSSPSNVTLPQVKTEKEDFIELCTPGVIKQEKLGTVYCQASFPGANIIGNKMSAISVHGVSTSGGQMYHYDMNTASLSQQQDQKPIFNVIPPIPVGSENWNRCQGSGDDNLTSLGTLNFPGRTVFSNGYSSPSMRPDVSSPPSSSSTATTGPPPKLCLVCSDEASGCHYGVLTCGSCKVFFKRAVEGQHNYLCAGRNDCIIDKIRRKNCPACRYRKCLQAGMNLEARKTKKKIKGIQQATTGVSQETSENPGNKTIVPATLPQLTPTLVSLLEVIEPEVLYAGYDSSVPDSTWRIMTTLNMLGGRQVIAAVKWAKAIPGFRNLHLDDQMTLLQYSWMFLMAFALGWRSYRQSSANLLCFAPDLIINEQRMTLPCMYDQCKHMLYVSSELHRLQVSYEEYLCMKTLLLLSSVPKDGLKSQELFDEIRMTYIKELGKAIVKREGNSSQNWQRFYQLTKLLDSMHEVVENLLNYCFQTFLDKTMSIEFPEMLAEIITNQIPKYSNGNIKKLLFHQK
Experimental: Affinity of ligands to the soluble receptor was determined using vacuum filtration methods, preparing soluble receptors in 96-well Falcon polystyrene plates (BD Biosciences, Bedford, MA) in a total volume of 250 μl. The hMR Sf9 lysate (approximately 20–25 μg protein in 20 μl) was incubated in the absence or presence of competing ligands with 10 μl of [1,2,6,7-3H] […] Binding studies for ligands for hPR and hAR were determined using [1,2,6,7-3H(N)] Progesterone (specific activity 103 Ci/mmol, at a final concentration 0.5 nM; NET381, NEN/Perkin Elmer Life Sciences, Boston, MA) and [17α-methyl-3H] Mibolerone, an enzymaticaly stable analog of testosterone (specific activity 76.8 Ci/mmol, final concentration 0.3 nM; NET919, NEN), respectively. Specific binding of 3H-progesterone for hPR and 3H-mibolerone for hAR was determined in the presence and absence of 1 μM mifepristone. Inhibition constants (Ki), were determined either from the Cheng-Prusoff equation[32], or directly using non-linear regression curve fitting to a three-parameter one-site competitive equation. Ki values obtained from individual concentration response curves were reported as the mean ± SEM. Protein was measured using colorimetric detection and quantification of bicinchoninic acid (BCA Protein Assay, Pierce, Rockford, IL). Cos-7L cells were cotransfected with expression vectors and a reporter plasmid responsive to all 3 nuclear hormone receptors. pBluescript II SK (+) (Stratagene, San Diego, CA) was included as a source of carrier DNA. The number of repetitions of full concentration response curves (n) represents values from at least two independent experiments for each condition. Concentration response curves were analyzed statistically using a four-parameter logistic equation (Hill equation for sigmoid curves). Similar methodology was adopted for the human glucocorticoid receptor (hGR) expressed in HEK293 cells.

## COC(=O)[C@@H]1CC2=CC(=O)CC[C@]2(C)[C@@]23O[C@@H]2C[C@@]2(C)[C@@H](CC[C@@]24CCC(=O)O4)[C@H]13 [Eplerenone, eplerenone, reference compound]
[1]; 60 days after ablation, Eple 150 mg/kg/day, Ly 20 mg/kg/day oral
  Albumin excretion rate (UalbV): slightly, but not significantly, attenuated
[1]; Day 60
  Fractional cortical interstitial area: only slightly attenuated
  Left kidney weight corrected for body weight (renal hypertrophy): no effect on renal weight
  Plasma aldosterone concentration (PAC): exacerbated hyperaldosteronemia
[1]; Day 60, versus Nx + V
  Plasma K+ levels: not aggravated
[1]; Eple 150 mg/kg/day, Ly 20 mg/kg/day oral
  Tail-cuff pressure (TCP): partially prevented the elevation of TCP
[2]; Day 150
  Plasma renin activity (PRA): significantly elevated compared to S, Nx and Nx + L
Nx rats
  Maximal nontoxic dose, defined by stunting of body growth: 150 mg/kg
Nx rats; Eple 85 mg/kg vs 150 mg/kg
  Dose-response effect on the parameters studied: No dose-response effect was observed
Nx rats; Eple 150 mg/kg dose vs 85 mg/kg
  PRA: slight increase in PRA
Nx rats; Eple, dose higher than 150 mg/kg
  Body growth: body growth limitation

## CCCCc1nc(Cl)c(CO)n1Cc1ccc(-c2ccccc2-c2nn[nH]n2)cc1 [L, losartan]
[2]; Day 150
  Density of interstitial AngII+ cells: not significantly altered
  Interstitial macrophage infiltration: numerically but not significantly reduced
  Percent cortical area occupied by collagen I (interstitial fibrosis): failed to reduce significantly
  Percentage of glomeruli with sclerotic lesions (GS%): partly prevented GS
  Plasma aldosterone concentration (PAC): significantly reduced PAC compared to S or Nx + V
  Plasma renin activity (PRA): normalized PRA
[2]; treatment Day 60-150
  Albumin excretion rate (UalbV): prevented the progression of albuminuria
[2]; treatment Day 60-150, L 50 mg/kg, Eple 150 mg/kg/day, Ly 20 mg/kg/day
  Tail-cuff pressure (TCP): mitigated

## CC(=O)S[C@@H]1CC2=CC(=O)CC[C@]2(C)[C@H]2CC[C@@]3(C)[C@@H](CC[C@@]34CCC(=O)O4)[C@H]12 [Spironolactone, spironolactone, reference compound]
[3]
  Ki: 33 ± 7 nM
